Experimental data from patent US20180207069A1, “COSMETIC USE OF A MONOUNSATURATED FATTY ACID OR ONE OF ITS SALTS AND/OR OF ITS ESTERS AS DEODORANT ACTIVE AGENT” (L'OREAL, priority 2012, published 2018).
In brackets after ≈: the same amount, converted by molar mass.

Key:
Type in all cases: cell-based
Corynebacterium striatum [1] = test: GC/MS (SPME) analysis of volatile compounds of cultures, C. striatum; settings: C. striatum culture, 37° C., 48 hours
Experimental: (§1) The four microorganisms were each cultured in a liquid medium comprising 1.6 g/l of KH2PO4, 5.0 g/l of (NH4)2HPO4, 0.38 g/l of Na2SO4, 3.35 g/l of yeast nitrogen base (difco), 0.5 g/l of yeast extract and 0.5 g/l of MgCl2.6H2O, 1.0 g/l of Tween 80, 1.0 g/l of valine, 1.0 g/l of leucine, 1.0 g/l of isoleucine and 1.0 g/l of methionine. Depending on the analyses to be carried out (profile of the odour by GC/MS or sensory evaluation), the various types of culture medium were prepared either in 2 ml of culture (high-throughput screening format in 96-well microtitration plates) or else 200 ml in Erlenmeyer flasks. For the GC/MS analyses, 2 ml of culture are sufficient but, for the sensory evaluation, for a panel of 12 people, the minimum amount of 200 ml of culture is necessary. […]
(§2) The strains were cultured aerobically at 37° C. for 48 hours. The magnitude of the growth was measured with the optical density (OD) at 600 nm. The cultures were subsequently analyzed for volatile odorous compounds by SPME-GC/MS. […]
(§3) In order to determine the relative amount of volatile compounds present in the culture medium, a solid phase microextraction (SPME; Supelco, USA), gas chromatography coupled with mass spectrometry (HS-SPME-GC/MS; Fisons, USA), is carried out. […] The mass spectra were recorded over an m/z range of 30-250. […]

Corynebacterium striatum [2] = test: In vitro sensory evaluation of culture odour, C. striatum; settings: petroselinic acid 0.05 g/l in culture medium, panel of 12 experts
Experimental: as §1, with “flasks.” for “flasks. For the GC/MS analyses, 2 ml of culture are sufficient but, for the sensory evaluation, for a panel of 12 people, the minimum amount of 200 ml of culture is necessary.”
as §2
(§4) For the sensory analysis, the minimum amount of 200 ml of culture medium is necessary for a panel of 12 experts. […] Before the sensory analysis, the cultures were sterilized by filtration and the filtrates were stored at 4° C. until analyzed. In a first phase, the profile of the odour was evaluated on the basis of the strongest odours by the sensory panel, with an intensity grade which varies from 1 to 4 (1—a little, 2—moderate, 3—strong and 4—very strong). […]

[3] = tested on: Corynebacterium mucifaciens; test: GC/MS (SPME) analysis of volatile compounds of cultures, C. mucifaciens; settings: C. mucifaciens culture, 37° C., 48 hours
Experimental: as §1, §2, §3

[4] = tested on: Corynebacterium mucifaciens; test: In vitro sensory evaluation of culture odour, C. mucifaciens; settings: petroselinic acid 0.05 g/l in culture medium, panel of 12 experts
Experimental: as §1, with “flasks.” for “flasks. For the GC/MS analyses, 2 ml of culture are sufficient but, for the sensory evaluation, for a panel of 12 people, the minimum amount of 200 ml of culture is necessary.”
as §2, §4

[5] = tested on: Staphylococcus epidermidis; test: In vitro sensory evaluation of culture odour, S. epidermidis; settings: petroselinic acid 0.05 g/l in culture medium, panel of 12 experts
Experimental: as §1, with “flasks.” for “flasks. For the GC/MS analyses, 2 ml of culture are sufficient but, for the sensory evaluation, for a panel of 12 people, the minimum amount of 200 ml of culture is necessary.”
as §2, §4

[6] = tested on: Staphylococcus epidermidis; test: GC/MS (SPME) analysis of volatile compounds of cultures, S. epidermidis; settings: S. epidermidis culture, 37° C., 48 hours
Experimental: as §1, §2, §3

[7] = tested on: Corynebacterium mucifaciens; test: Minimum Inhibitory Concentration (MIC), C. mucifaciens; settings: LMG19067, read-out: Minimum Inhibitory Concentration (MIC) C. mucifaciens
Text: (§5) The Minimum Inhibitory Concentration (MIC) on the microorganisms Corynebacterium striatum, Corynebacterium mucifaciens and Corynebacterium xerosis with the following active agents was compared.

Corynebacterium striatum [8] = test: Minimum Inhibitory Concentration (MIC), C. striatum; settings: LMG19648, read-out: Minimum Inhibitory Concentration (MIC) C. striatum
Text: as §5

Corynebacterium xerosis = test: Minimum Inhibitory Concentration (MIC), C. xerosis; settings: DSM20743, read-out: Minimum Inhibitory Concentration (MIC) C. xerosis
Text: as §5

[9] = acid added to culture medium (petroselinic 0.05, linolenic 0.5, myristic 0.005, azelaic 0.5 g/l)
[10] = petroselinic acid 0.05 g/l in culture medium

SMILES | amount of aldehydes (Corynebacterium striatum [1]; [9]) | concentration of ketone compounds (Corynebacterium striatum [1]; [10]) | description of the odour notes (Corynebacterium striatum [2]) | resulting odour as perceived by the panel of experts (Corynebacterium striatum [2]) | aldehydes in the odour profile [3, 9] | concentration of ketone compounds [3, 10] | description of the scent [4] | perception of the odour [4] | description of the odour notes [5] | resulting odour as perceived by the panel of experts [5] | amount of aldehydes [6, 9] | concentration of ketone compounds [6, 10] | MIC [7] | MIC (Corynebacterium striatum [8]) | MIC (Corynebacterium xerosis)
CCCCCCCCCCC/C=C\CCCCC(=O)O [Petroselinic acid] | significant reduction | greater concentration | fresher notes with scents described as “green” and “putty” | more pleasant | noticeable reduction | greater concentration | scent described as “putty” | more pleasant | fresher notes with scents described as “green” and “putty” | more pleasant | significant reduction | greater concentration | – | – | –
Oc1cc(Cl)ccc1Oc1ccc(Cl)cc1Cl [Triclosan, 2,4,4′-trichloro-2′-hydroxydiphenyl ether] | – | – | – | – | – | – | – | – | – | – | – | – | 25 µg/mL (≈ 86.3 µM) | 10 µg/mL (≈ 34.5 µM) | 50 µg/mL (≈ 173 µM)
